{"source": "patent US11708348B2", "about": "“Protease inhibitors for treatment of coronavirus infections” (The Scripps Research Institute, priority 2021, dated 2023)", "tested_on": "SARS-CoV-2 strain USA-WA1/2020", "experiment": "microbe, parasite or virus in culture", "type": "cell-based", "settings": "Severe acute respiratory syndrome coronavirus 2, HeLa-ACE2, 24 h, HeLa-ACE2 cells, SARS-CoV-2 infection, 24 h, read-out: EC50, uM (Hela)", "note": "Like-named read-outs stand apart in the source and are kept apart here."}
{"smiles": "CC(C)(NC(=O)C(=O)N1C[C@H]2CCCC[C@H]2C[C@H]1C(=O)N[C@@H](C[C@@H]1CCNC1=O)C(=O)COC(F)(F)F)C(F)(F)F", "note": "[Compound 487, (3S,4aS,8aS)-N-((S)-3-oxo-1-((S)-2-oxopyrrolidin-3-yl)-4-(trifluoromethoxy)butan-2-yl)-2-(2-oxo-2-((1,1,1-trifluoro-2-methylpropan-2-yl)amino)acetyl)-decahydroiso-quinoline-3-carboxamide]", "values": [{"measurement": "EC50", "value": "0.05 to 0.2", "unit": "µM"}]}
{"smiles": "CC1(C)[C@@H]2[C@@H](C(=O)N[C@@H](C[C@@H]3CCNC3=O)C(=O)COC(F)(F)F)N(C(=O)c3cc(C(F)(F)F)no3)C[C@@H]21", "note": "[Compound 488, (1R,2S,5S)-6,6-dimethyl-N-((S)-3-oxo-1-((S)-2-oxo-pyrrolidin-3-yl)-4-(trifluoromethoxy)butan-2-yl)-3-(3-(trifluoromethyl)-isoxazole-5-carbonyl)-3-azabicyclo[3.1.0]-hexane-2-carboxamide]", "values": [{"measurement": "EC50", "value": "0.05 to 0.2", "unit": "µM"}]}
{"smiles": "CC1(C)[C@@H]2[C@@H](C(=O)N[C@@H](C[C@@H]3CCNC3=O)C(=O)COC(F)(F)F)N(C(=O)C(=O)Nc3ccccc3F)C[C@@H]21", "note": "[Compound 489, (1R,2S,5S)-3-(2-((2-fluorophenyl)amino)-2-oxoacetyl)-6,6-dimethyl-N-((S)-3-oxo-1-((S)-2-oxopyrrolidin-3-yl)-4-(trifluoromethoxy)butan-2-yl)-3-azabicyclo[3.1.0]-hexane-2-carboxamide]", "values": [{"measurement": "EC50", "value": "< 0.05", "unit": "µM"}]}
{"smiles": "CC(C)(F)c1cc(C(=O)N[C@@H](CC2CC2)C(=O)N[C@@H](C[C@@H]2CCNC2=O)C(=O)COC(F)(F)F)no1", "note": "[Compound 490, N-((S)-3-cyclopropyl-1-oxo-1-(((S)-3-oxo-1-((S)-2-oxopyrrolidin-3-yl)-4-(trifluoromethoxy)butan-2-yl)amino)propan-2-yl)-5-(2-fluoropropan-2-yl)isoxazole-3-carboxamide]", "values": [{"measurement": "EC50", "value": "< 0.05", "unit": "µM"}]}
{"smiles": "CC(C)(F)c1cc(C(=O)N2C[C@@H]3CCC[C@@H]3[C@H]2C(=O)N[C@@H](C[C@@H]2CCNC2=O)C(=O)COC(F)(F)F)no1", "note": "[Compound 491, (1S,3aR,6aS)-2-(5-(2-fluoropropan-2-yl)isoxazole-3-carbonyl)-N-((S)-3-oxo-1-((S)-2-oxopyrrolidin-3-yl)-4-(trifluoromethoxy)butan-2-yl)octahydrocyclo-penta[c]pyrrole-1-carboxamide]", "values": [{"measurement": "EC50", "value": "< 0.05", "unit": "µM"}]}
{"smiles": "CC1(C)[C@@H]2[C@@H](C(=O)N[C@H](C[C@@H]3CCNC3=O)C(=O)COC(F)(F)F)N(C(=O)c3cc(C(F)(F)F)no3)C[C@@H]21", "note": "[Compound 492, (1R,2S,5S)-6,6-dimethyl-N-((R)-3-oxo-1-((S)-2-oxopyrrolidin-3-yl)-4-(trifluoromethoxy)butan-2-yl)-3-(3-(trifluoromethyl)-isoxazole-5-carbonyl)-3-azabicyclo[3.1.0]-hexane-2-carboxamide]", "values": [{"measurement": "EC50", "value": "0.05 to 0.2", "unit": "µM"}]}
{"smiles": "CC(C)(C)NC(=O)C(=O)N1C[C@@H]2C[C@@H]2[C@H]1C(=O)N[C@@H](C[C@@H]1CCNC1=O)C(=O)COC(F)(F)F", "note": "[Compound 493, (1S,2S,5R)-3-(2-(tert-butylamino)-2-oxoacetyl)-N-((S)-3-oxo-1-((S)-2-oxopyrrolidin-3-yl)-4-(trifluoromethoxy)butan-2-yl)-3-azabicyclo[3.1.0]-hexane-2-carboxamide]", "values": [{"measurement": "EC50", "value": "0.2 to 0.5", "unit": "µM"}]}
{"smiles": "CC1(NC(=O)C(=O)N2C[C@@H]3CCC[C@@H]3[C@H]2C(=O)N[C@H](C[C@@H]2CCNC2=O)C(=O)COC(F)(F)F)CC1", "note": "[Compound 495, (1S,3aR,6aS)-2-(2-((1-methylcyclopropyl)-amino)-2-oxoacetyl)-N-((R)-3-oxo-1-((S)-2-oxopyrrolidin-3-yl)-4-(trifluoromethoxy)butan-2-yl)octahydrocyclo-penta[c]pyrrole-1-carboxamide]", "values": [{"measurement": "EC50", "setting": "given as bound", "value": "> 1", "unit": "µM"}]}
{"smiles": "O=C(NC1CC1)C(=O)N1C[C@@H]2CCC[C@@H]2[C@H]1C(=O)N[C@@H](C[C@@H]1CCNC1=O)C(=O)COC(F)(F)F", "note": "[Compound 497, (1S,3aR,6aS)-2-(2-(cyclopropylamino)-2-oxoacetyl)-N-((S) -3-oxo-1-((S)-2-oxopyrrolidin-3-yl)-4-(trifluoromethoxy)butan-2-yl)octahydrocyclo-penta[c]pyrrole-1-carboxamide]", "values": [{"measurement": "EC50", "value": "0.05 to 0.2", "unit": "µM"}]}
{"smiles": "CC(C)(C)NC(=O)C(=O)N1[C@H](C(=O)N[C@@H](C[C@@H]2CCNC2=O)C(=O)COC(F)(F)F)C[C@@H]2CCCC[C@@H]21", "note": "[Compound 498, (2S,3aS,7aS)-1-(2-(tert-butylamino)-2-oxoacetyl)-N-((S)-3-oxo-1-((S)-2-oxopyrrolidin-3-yl)-4-(trifluoromethoxy)butan-2-yl)octahydro-1H-indole-2-carboxamide]", "values": [{"measurement": "EC50", "value": "0.05 to 0.2", "unit": "µM"}]}
{"smiles": "CC(C)(F)c1cc(C(=O)NC(CC2CCOCC2)C(=O)N[C@@H](C[C@@H]2CCNC2=O)C(=O)COC(F)(F)F)no1", "note": "(stereo partly drawn) [Compound 499, 5-(2-fluoropropan-2-yl)-N-(l-oxo-1-(((S)-3-oxo-1-((S)-2-oxopyrrolidin-3-yl)-4-(trifluoromethoxy)butan-2-yl)amino)-3-(tetrahydro-2H-pyran-4-yl)propan-2-yl)isoxazole-3-carboxamide]", "values": [{"measurement": "EC50", "value": "0.05 to 0.2", "unit": "µM"}]}
{"smiles": "O=C1NCC[C@H]1C[C@H](NC(=O)[C@@H]1[C@H]2CCC[C@H]2CN1C(=O)c1cc(C(F)F)on1)C(=O)COC(F)(F)F", "note": "[Compound 500, (1S,3aR,6aS)-2-(5-(difluoromethyl)-isoxazole-3-carbonyl)-N-((S)-3-oxo-1-((S)-2-oxopyrrolidin-3-yl)-4-(trifluoromethoxy)butan-2-yl)octahydrocyclo-penta[c]pyrrole-1-carboxamide]", "values": [{"measurement": "EC50", "value": "< 0.05", "unit": "µM"}]}
{"smiles": "CC(C)(F)c1cc(C(=O)N2C=C3C[C@@H]3[C@H]2C(=O)N[C@@H](C[C@@H]2CCNC2=O)C(=O)COC(F)(F)F)no1", "note": "[Compound 501, (1S,2S)-3-(5-(2-fluoropropan-2-yl)isoxazole-3-carbonyl)-N-((S)-3-oxo-1-((S)-2-oxopyrrolidin-3-yl)-4-(trifluoromethoxy)butan-2-yl)-3-azabicyclo[3.1.0]hex-4-ene-2-carboxamide]", "values": [{"measurement": "EC50", "setting": "given as bound", "value": "> 1", "unit": "µM"}]}
{"smiles": "CC(C)(C)NC(=O)C(=O)N1CC2(CC2)C[C@H]1C(=O)N[C@@H](C[C@@H]1CCNC1=O)C(=O)COC(F)(F)F", "note": "[Compound 502, (S)-5-(2-(tert-butylamino)-2-oxoacetyl)-N-((S)-3-oxo-1-((S)-2-oxopyrrolidin-3-yl)-4-(trifluoromethoxy)butan-2-yl)-5-azaspiro[2.4]-heptane-6-carboxamide]", "values": [{"measurement": "EC50", "value": "< 0.05", "unit": "µM"}]}
{"smiles": "CC(C)(C)NC(=O)C(=O)N[C@@H](CC1CC1)C(=O)N[C@@H](C[C@@H]1CCNC1=O)C(=O)COC(F)(F)F", "note": "[Compound 503, N1-(tert-butyl)-N2-((S)-3-cyclopropyl-1-oxo-1-(((S)-3-oxo-1-((S)-2-oxopyrrolidin-3-yl)-4-(trifluoromethoxy)butan-2-yl)amino)propan-2-yl)oxalamide]", "values": [{"measurement": "EC50", "value": "< 0.05", "unit": "µM"}]}
{"smiles": "Cc1ccccc1NC(=O)C(=O)N[C@@H](CC(C)(C)C)C(=O)N[C@@H](C[C@@H]1CCNC1=O)C(=O)COC(F)(F)F", "note": "[Compound 504, N1-((S)-4,4-dimethyl-1-oxo-1-(((S)-3-oxo-1-((S)-2-oxopyrrolidin-3-yl)-4-(trifluoromethoxy)butan-2-yl)amino)pentan-2-yl)-N2-(o-tolyl)oxalamide]", "values": [{"measurement": "EC50", "value": "< 0.05", "unit": "µM"}]}
{"smiles": "CC(C)(C)C[C@H](NC(=O)C(=O)NCC(F)(F)F)C(=O)N[C@@H](C[C@@H]1CCNC1=O)C(=O)COC(F)(F)F", "note": "[Compound 505, N1-((S)-4,4-dimethyl-1-oxo-1-(((S)-3-oxo-1-((S)-2-oxopyrrolidin-3-yl)-4-(trifluoromethoxy)butan-2-yl)amino)pentan-2-yl)-N2-(2,2,2-trifluoroethyl)-oxalamide]", "values": [{"measurement": "EC50", "value": "< 0.05", "unit": "µM"}]}
{"smiles": "Cc1ccccc1NC(=O)C(=O)N[C@@H](CC1CC1)C(=O)N[C@@H](C[C@@H]1CCNC1=O)C(=O)COC(F)(F)F", "note": "[Compound 507, N1-((S)-3-cyclopropyl-1-oxo-1-(((S)-3-oxo-1-((S)-2-oxopyrrolidin-3-yl)-4-(trifluoromethoxy)butan-2-yl)amino)propan-2-yl)-N2-(o-tolyl)oxalamide]", "values": [{"measurement": "EC50", "value": "< 0.05", "unit": "µM"}]}
{"smiles": "CC(C)(C)NC(=O)C(=O)N1CC2(CC1C(=O)N[C@@H](C[C@@H]1CCNC1=O)C(=O)COC(F)(F)F)CC(F)(F)C2", "note": "(stereo partly drawn) [Compound 508, 6-(2-(tert-butylamino)-2-oxoacetyl)-2,2-difluoro-N-((S)-3-oxo-1-((S)-2-oxopyrrolidin-3-yl)-4-(trifluoromethoxy)butan-2-yl)-6-azaspiro[3.4]octane-7-carboxamide]", "values": [{"measurement": "EC50", "value": "0.05 to 0.2", "unit": "µM"}]}
{"smiles": "O=C(N[C@@H](CC1CC1)C(=O)N[C@@H](C[C@@H]1CCNC1=O)C(=O)COC(F)(F)F)C(=O)NC12CC(F)(C1)C2", "note": "[Compound 509, N1-((S)-3-cyclopropyl-1-oxo-1-(((S)-3-oxo-1-((S)-2-oxopyrrolidin-3-yl)-4-(trifluoromethoxy)butan-2-yl)amino)propan-2-yl)-N2-(3-fluorobicyclo[1.1.1]-pentan-1-yl)oxalamide]", "values": [{"measurement": "EC50", "value": "< 0.05", "unit": "µM"}]}
{"smiles": "O=C(NC(CC1CCOCC1)C(=O)N[C@@H](C[C@@H]1CCNC1=O)C(=O)COC(F)(F)F)C(=O)NC12CC(F)(C1)C2", "note": "(stereo partly drawn) [Compound 510, N1-(3-fluorobicyclo-[1.1.1]pentan-1-yl)-N2-(1-oxo-1-(((S)-3-oxo-1-((S)-2-oxopyrrolidin-3-yl)-4-(trifluoromethoxy)butan-2-yl)amino)-3-(tetrahydro-2H-pyran-4-yl)propan-2-yl)oxalamide]", "values": [{"measurement": "EC50", "value": "0.2 to 0.5", "unit": "µM"}]}
{"smiles": "CC(C)(C)NC(=O)C(=O)N1CC2(CCC2)CC1C(=O)N[C@@H](C[C@@H]1CCNC1=O)C(=O)COC(F)(F)F", "note": "(stereo partly drawn) [Compound 511, 6-(2-(tert-butylamino)-2-oxoacetyl)-N-((S)-3-oxo-1-((S)-2-oxopyrrolidin-3-yl)-4-(trifluoromethoxy)butan-2-yl)-6-azaspiro[3.4]-octane-7-carboxamide]", "values": [{"measurement": "EC50", "value": "0.05 to 0.2", "unit": "µM"}]}
{"smiles": "O=C(N[C@@H](CC1CC1)C(=O)N[C@@H](C[C@@H]1CCNC1=O)C(=O)COC(F)(F)F)C(=O)NC1(C(F)(F)F)CC1", "note": "[Compound 512, N1-((S)-3-cyclopropyl-1-oxo-1-(((S)-3-oxo-1-((S)-2-oxopyrrolidin-3-yl)-4-(trifluoromethoxy)butan-2-yl)amino)propan-2-yl)-N2-(1-(trifluoromethyl)-cyclopropyl)-oxalamide]", "values": [{"measurement": "EC50", "value": "0.05 to 0.2", "unit": "µM"}]}
